Assay results from article PMC7307906, “Macrocyclic Modalities Combining Peptide Epitopes and Natural Product Fragments” (Journal of the American Chemical Society, 2020).

Assays:
[1] = biological target: hMC1−5R; test: Melanocortin receptor radioligand binding, result stated for all receptors together; set-up: species or system human
Source text: Example concentration response curves for selected PepNats in MC1R, MC3R, MC4R, MC5R radioligand binding assays and MC1R, MC3R, MC4R cAMP assays. Responses were normalized to reference agonist NDP -α-MSH and presented as % effect of control, with full competition in binding defined as -100% and full agonism in cAMP assays defined as […]
binding assay. Threshold to define a compound as active was set to -30% in binding assays and 20% in cAMP assays respectively. Data are from at least three independent experiments and error bars represent ± Standard Error of the […]
% s p e c ific b in d in g o f
(1 picture or pasted object on this page, not shown here) […]
expression, MC1R and MC4R transfected cells were treated with 0.1 ng /mL and MC3R transfected cells with 10 ng/mL doxycyclin, for 24 h before assay.
Melanocortin receptor radioligand binding and cAMP assays.
Binding and cAMP assays were performed as described by Durek et al.7 “A 384-well format scintillation proximity assay (SPA) was used to identify compounds that show competitive binding to the human Melanocortin receptor 1,3,4 or 5 ligand binding domain (LBD). […] The inhibition of the scintillation signal by displacement of [ 125I]- NDP-α-MSH by test compounds were detected by a 1450 MicroBeta Trilux scintillation counter […]
Plates were incubated for 16-23 h in the dark at room temperature before reading on a 1450 […]
Measurements of cAMP production were performed using LANCE® cAMP kits (PerkinElmer) in a total assay volume of 12 µl/well. […] The reaction was stopped with detection buffer containing 10 µM Biotin-cAMP and 15 µM LANCE Eu-W8044 labelled streptavidin (PerkinElmer LANCE cAMP kit). cAMP production was detected by homogenous time resolved fluorescence (HTRF) (λex = 340 nm, λem = 665 and 615 nm) using a Pherastar (BMG Labtech).
PepNats, literature compounds and references were tested in ten-point concentration response (½ log serial dilution) with 100, 10 or 1 µM as final start concentrations. Raw data output was analyzed in Screener software (Genedata AG) and pEC50 and pIC50 values calculated using a four-

[2] = biological target: T1, human MC4R (Homo sapiens, UniProt P32245); test: Melanocortin receptor radioligand binding (SPA, [125I]-NDP-α-MSH displacement), MC4R; conditions: competitive binding, mean (± SEM) of at least three independent experiments, read-out: IC50 hMC4R binding
T1 construct: expressed in transfected cells

[3] = biological target: T2, human MC1R (Homo sapiens, UniProt Q01726); test: Melanocortin receptor radioligand binding (SPA, [125I]-NDP-α-MSH displacement), MC1R; conditions: competitive binding, mean (± SEM) of at least three independent experiments, read-out: IC50 hMC1R binding
T2 construct: expressed in transfected cells

[4] = biological target: T3, human MC3R (Homo sapiens, UniProt P41968); test: Melanocortin receptor radioligand binding (SPA, [125I]-NDP-α-MSH displacement), MC3R; conditions: competitive binding, mean (± SEM) of at least three independent experiments, read-out: IC50 hMC3R binding
T3 construct: expressed in transfected cells

[5] = biological target: T1, human MC4R; test: cAMP assay (LANCE) in T-Rex-293 cells expressing MC4R; format: cell-based; conditions: cAMP assay; mean (± SEM) of at least three independent experiments; read-out: EC50 hMC4R cAMP
[6] = biological target: T3, human MC3R; test: cAMP assay (LANCE) in T-Rex-293 cells expressing MC3R; format: cell-based; conditions: cAMP assay; mean (± SEM) of at least three independent experiments; read-out: EC50 hMC3R cAMP
[7] = biological target: T2, human MC1R; test: cAMP assay (LANCE) in T-Rex-293 cells expressing MC1R; format: cell-based
[8] = biological target: T4, human MC5R (Homo sapiens, UniProt P33032); test: Melanocortin receptor radioligand binding (SPA, [125I]-NDP-α-MSH displacement), MC5R; conditions: competitive binding, [125I]-NDP-α-MSH; mean (± SEM) of at least three independent experiments; read-out: IC50 hMC5R binding
T4 construct: expressed in transfected cells; host or cells: HEK293-6E suspension cells, transient expression; membranes
T4 sequence (P33032 whole entry): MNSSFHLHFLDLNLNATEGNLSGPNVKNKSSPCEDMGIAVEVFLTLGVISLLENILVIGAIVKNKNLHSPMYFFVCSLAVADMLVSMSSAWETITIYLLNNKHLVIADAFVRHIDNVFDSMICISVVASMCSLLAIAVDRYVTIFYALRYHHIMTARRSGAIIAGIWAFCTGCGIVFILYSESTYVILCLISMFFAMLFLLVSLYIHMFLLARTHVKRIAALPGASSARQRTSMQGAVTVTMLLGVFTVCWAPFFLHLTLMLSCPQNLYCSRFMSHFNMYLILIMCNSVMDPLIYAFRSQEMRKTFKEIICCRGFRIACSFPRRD

T2 sequence (Q01726 whole entry): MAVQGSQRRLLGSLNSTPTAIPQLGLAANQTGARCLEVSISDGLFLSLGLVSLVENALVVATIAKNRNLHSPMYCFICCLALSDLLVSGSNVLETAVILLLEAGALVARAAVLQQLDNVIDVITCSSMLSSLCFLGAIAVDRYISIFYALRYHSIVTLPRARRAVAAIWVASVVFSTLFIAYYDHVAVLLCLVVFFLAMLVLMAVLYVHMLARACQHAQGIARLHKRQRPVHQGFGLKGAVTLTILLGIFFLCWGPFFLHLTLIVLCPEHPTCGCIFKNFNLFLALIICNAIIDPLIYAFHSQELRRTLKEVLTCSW
T3 sequence (P41968 whole entry): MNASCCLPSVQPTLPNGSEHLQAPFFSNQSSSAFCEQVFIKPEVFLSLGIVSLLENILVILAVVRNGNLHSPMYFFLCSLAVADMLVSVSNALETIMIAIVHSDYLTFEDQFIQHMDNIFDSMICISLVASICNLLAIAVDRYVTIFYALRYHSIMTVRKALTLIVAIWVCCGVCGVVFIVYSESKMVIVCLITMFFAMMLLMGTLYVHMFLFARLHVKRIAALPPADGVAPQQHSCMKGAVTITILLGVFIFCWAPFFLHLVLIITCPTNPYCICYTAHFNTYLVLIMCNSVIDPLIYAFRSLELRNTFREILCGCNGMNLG
T1 sequence (P32245 whole entry): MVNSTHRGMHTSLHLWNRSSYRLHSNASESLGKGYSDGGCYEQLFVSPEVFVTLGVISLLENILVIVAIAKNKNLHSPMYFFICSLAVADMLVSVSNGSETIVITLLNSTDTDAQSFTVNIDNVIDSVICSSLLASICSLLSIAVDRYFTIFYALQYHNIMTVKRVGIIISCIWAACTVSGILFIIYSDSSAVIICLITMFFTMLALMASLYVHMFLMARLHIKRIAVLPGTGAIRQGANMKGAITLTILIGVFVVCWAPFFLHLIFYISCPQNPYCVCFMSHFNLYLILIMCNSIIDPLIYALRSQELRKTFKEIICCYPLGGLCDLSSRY

## CN1C(=O)[C@H]2N[C@@H](c3ccc(cc3)C(=O)NCCCC[C@@H](C(=O)N[C@@H](Cc3ccc(O)cc3)C(N)=O)NC(=O)[C@H](CC(N)=O)NC(=O)[C@@H](Cc3ccccc3)NC(=O)[C@@H](Cc3ccccc3)NC(=O)[C@H](CCCNC(=N)N)NC(=O)[C@@H]1Cc1ccccc1)[C@H]1C(=O)N(c3ccccc3)C(=O)[C@H]12 [K1-minor, [II-FRffNK ]Y]
[1]; competitive binding, one bound printed for all receptors
  IC50: > 100 µM
[1]; human MC receptors, radioligand binding
  binding to the MC receptors (in words): did not bind to any of the receptors
[2]
  IC50: > 100 µM
[3]
  IC50: > 100 µM
[4]
  IC50: > 100 µM
[5]
  EC50: > 100 µM
[6]
  EC50: > 100 µM
[7]; % effect at 100 µM, compounds not reaching an upper plateau (§)
  % Effect hMC1R cAMP at 100 µM: 30%
[7]; cAMP assay, mean (± SEM) of at least three independent experiments, read-out: EC50 hMC1R cAMP
  EC50: > 100 µM
[8]
  IC50: > 100 µM
